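96-well plates; 48 h exposure; 5 concentrations. Endpoints by linear interpolation between flanking doses. Not reached: highest tested concentration assigned. Abbreviation: GI50, concentration required for 50% inhibition of growth. TGI denotes the concentration required for complete inhibition of growth.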

This is an account of results in PubChem BioAssay (NCI).

What all share (assay): inhibition of tumour cell growth, NCI panel, 48 h
The subject of experiment [1] is TK-10 renal.
Experiment [2] has as its system KM12 colon.
For experiment [3], the system named is T-47D breast.
Experiment [4] has as its system A549 NSCLC.
Experiment [5] deals with NCI-H226 lung.
For experiment [6], the system named is MCF7 breast.
Experiment [7] relates to BT-549 breast.
For experiment [8], the system named is DU-145 prostate.
The test system of experiment [9] is ACHN renal.
The subject of experiment [10] is PC-3 prostate.

On to `CCCC(C)c1cc(Cc2cc(Cl)cc(Cl)c2O)c(O)c(Cc2cc(Cl)cc(Cl)c2O)c1` (configuration not stated), for which the GI50 in experiment [1] was 2.3 µM; in experiment [2], 2.19 µM; in [3] it was 0.809 µM; in experiment [4], 2.19 µM; in experiment [5], 1.94 µM; in experiment [6], 0.798 µM. Besides, the GI50 in [7] was 1.33 µM; in experiment [8], 3.89 µM; in experiment [9], 1.99 µM; in experiment [10], 0.43 µM. Moreover, the TGI in experiment [1] stood at 11.8 µM; in experiment [2] it was 11.4 µM; in experiment [3], 6.77 µM; in experiment [4], 12.5 µM; in experiment [5], 6.61 µM; in experiment [6], 10.2 µM. Further, the TGI in experiment [7] stood at 5.2 µM; in [8] it was 15.5 µM; in experiment [9], 10.9 µM; in experiment [10], 4.52 µM.

For the molecule `CC1OC(O[C@@H]2OC=C(C=O)[C@@]3(O)CC[C@H](C)[C@@H]23)C(O)C(O)C1O` (some centres not stated), the TGI in [1], in experiment [2], in [3], in [4], in experiment [5] and in [6] was more than 100 µM in each case. In addition, the TGI in experiment [7], in [8], in experiment [9] and in [10] was more than 100 µM in each case.

With `N#Cc1c(N2CCCC2)[nH]c(=O)c(C(c2c(Cl)cccc2Cl)c2c(O)c(C#N)c(N3CCCC3)[nH]c2=O)c1O`, the GI50 in experiment [1] was 12.4 µM; in [2] it was 22.6 µM; in [3], 3.13 µM; in experiment [4], 18.8 µM; in experiment [5] it was 10.9 µM; in [6] it was 14.2 µM. In addition, the GI50 in experiment [7] is 2.3 µM; in experiment [8] it was 5.57 µM; in experiment [9] it was 16.8 µM; in experiment [10], 14.5 µM. Besides, the TGI in experiment [1] was 29.6 µM; in [2] it was 54 µM; in [3] it was 13.4 µM; in experiment [4], 36 µM; in [5], 24.4 µM; in experiment [6] it was 49.8 µM. In addition, the TGI was 6.25 µM in [7], 18.4 µM in experiment [8], 34.1 µM in experiment [9] and 28.3 µM in experiment [10].

As to `COC(=O)[C@@]1(C)CC[C@]2(C)CC[C@]3(C)C4=CC=C5C(=CC(=O)C(O)=C5C)[C@]4(C)[C@@H](O)C[C@@]3(C)[C@@H]2C1`, the GI50 was 4.77 µM in [1]; 13 µM in experiment [2]; 3.04 µM in [3]; 15.9 µM in [4]; 13.9 µM in [5]; 11.3 µM in [6]. Also, the GI50 in experiment [7] is 10.5 µM; in [8], 12.3 µM; in experiment [9] it was 3.8 µM; in [10], 8.7 µM. The TGI turned out to be 15.7 µM in experiment [1]; 25.1 µM in experiment [2]; 15.9 µM in experiment [3]; 30.1 µM in experiment [4]; 24.9 µM in experiment [5]; 23.9 µM in experiment [6]. Moreover, the TGI turned out to be 22.3 µM in experiment [7], 23.3 µM in [8], 13.4 µM in experiment [9] and 19 µM in [10].

`CC(C)c1cc(-c2n[nH]c(=O)n2-c2ccc3c(ccn3C)c2)c(O)cc1O`: the GI50 was less than 0.0271 µM in experiment [1]; 0.0221 µM in experiment [2]; less than 0.0287 µM in experiment [3]; less than 0.0204 µM in [4]; 0.286 µM in experiment [5]; less than 0.0161 µM in experiment [6]. Also, the GI50 in experiment [7] was 1.87 µM; in experiment [8], less than 0.0237 µM; in experiment [9], less than 0.0209 µM; in [10], less than 0.0224 µM. The TGI in experiment [1] was 37 µM; in experiment [2] it was 0.062 µM; in experiment [3], 34.5 µM; in [4] it was more than 71.3 µM; in experiment [5] it was 60.1 µM; in [6] it was 17.3 µM. Further, the TGI in [7] was 44.3 µM; in experiment [8], 23 µM; in experiment [9], more than 43.1 µM; in experiment [10] it was 49.6 µM.

`NCCn1c(=O)[nH]c(=O)[nH]c1=S`: the GI50 in [1] is more than 100 µM; in [2], more than 100 µM; in experiment [3] it was more than 100 µM; in [4], more than 100 µM; in [5], more than 100 µM; in experiment [6], 61.1 µM. Further, the GI50 in [7], in experiment [8], in [9] and in experiment [10] was more than 100 µM each time. Also, the TGI in [1], in experiment [2], in experiment [3], in experiment [4], in experiment [5] and in [6] was more than 100 µM in each case. Further, the TGI in experiment [7], in experiment [8], in experiment [9] and in experiment [10] was more than 100 µM each time.

`COc1cc(/C=C/c2cc(O)c3cc(C(C)=O)c(=O)oc3c2)cc2c1O[C@]1(C)CC[C@@H](O)C(C)(C)[C@H]1C2`: the GI50 in experiment [1] is more than 42.7 µM; in [2], more than 20.8 µM; in experiment [3], more than 23.8 µM; in [4], more than 24.2 µM; in experiment [5] it was more than 23.7 µM; in experiment [8], more than 27.8 µM. The GI50 in [9] was more than 22.9 µM. Further, the TGI in experiment [1] was more than 77.7 µM; in [2], more than 39.3 µM; in [3] it was more than 53.9 µM; in experiment [4], more than 53.2 µM; in experiment [5] it was more than 64.9 µM; in [6], more than 39.3 µM. Further, the TGI in experiment [7] is more than 61.2 µM; in experiment [8] it was more than 45.6 µM; in experiment [9] it was more than 74 µM; in experiment [10], more than 36 µM.

`COc1cccc2c1c(C(=O)C(=O)Nc1cc(C)no1)cn2Cc1ccc(F)cc1`: the GI50 is 15.3 µM in [1]; 2.19 µM in experiment [2]; 5.17 µM in experiment [3]; 23.8 µM in experiment [4]; 36.2 µM in [5]; 3.27 µM in experiment [6]. In addition, the GI50 in experiment [7] was 5.36 µM; in [8], 19.4 µM; in experiment [9], 15.4 µM; in experiment [10] it was 11 µM. The TGI in [1] is more than 100 µM; in experiment [2], more than 44.4 µM; in experiment [3], more than 100 µM; in experiment [4], more than 100 µM; in experiment [5] it was more than 100 µM; in experiment [6] it was more than 90.6 µM. The TGI was more than 100 µM in experiment [7], more than 100 µM in [8], more than 100 µM in [9] and more than 84.9 µM in experiment [10].
